Experimental data: US20140249031A1, “MICELLE-COATED CRYSTALLINE PARTICLES” (SYNGENTA LIMITED, priority 2011, published 2014)

Key:
[1] = Visual release rate test of Bitrex in water; format: physicochemical; conditions: after 15 minutes; 0.4 mg agitated in 10 ml of water
Experimental: 0.4 mg of sample was agitated in 10 ml of water and observed over 8 hours.

[2] = UV/Vis release rate measurement of Bitrex in water; format: physicochemical; conditions: 100 mg in 40 ml water
Experimental: 2 ml of the mixture was removed at each time interval for analysis.

visual release: state of sample in water [1]: fully dissolved
% release of Bitrex relative to the total content ([2]; 5 minutes): 99.6%
% release of Bitrex relative to the total content ([2]; 15 minutes): 99.8%
SMILES: CC[N+](CC)(CC(=O)Nc1c(C)cccc1C)Cc1ccccc1 [uncoated Bitrex, denatonium benzoate]
